Laboratory results: patent publication US20150374691A1, “METHODS AND MATERIALS FOR TREATING ORTHOSTATIC HYPOTENSION OR POSTURAL TACHYCARDIA SYNDROME” (Mayo Foundation for Medical Education and Research, priority 2009, published 2015)

Tests used:
[1] = tested on: patients with myasthenic syndromes; details: among 132 patients enrolled, cited from earlier work
[2] = tested on: patient with Lambert-Eaton myasthenic syndrome who also suffered from orthostatic hypotension; assay: blood pressure and heart rate response to head-up tilt before and after 3,4-DAP; type: in vivo, human; details: one patient, after oral administration of 20 mg 3,4-DAP; before administration a significant drop was observed (FIG. 1)
Description: FIG. 1 is a graph plotting the blood pressure and heart rate response to head-up tilt in a patient with orthostatic hypotension before (left) and after (right) oral administration of 20 mg of 3,4-DAP.
The effects of administering 3,4-DAP to a patient with orthostatic hypotension were studied. Briefly, the blood pressure and heart rate response to head-up tilt was studied in a patient with Lambert-Eaton myasthenic syndrome who also suffered from orthostatic hypotension before and after oral administration of 20 mg 3,4-DAP. Before administration of 3,4-DAP, a significant orthostatic blood pressure drop was observed after a head-up tilt (FIG. 1, left).

## Nc1ccncc1N [3,4-DAP, 3,4-diaminopyridine]
[1]; after being on the medication for years, clear cause-effect relationship not established
  seizures: two patients experienced a self-limited seizure
[1]
  complications related to cardiac arrhythmias: no noted complications related to cardiac arrhythmias
[2]
  orthostatic blood pressure drop after a head-up tilt: did not exhibit a significant orthostatic blood pressure drop
